Strand notation (5' to 3'): a small letter for the sugar, then the base; units joined by * are phosphorothioate-linked, units joined directly phosphodiester-linked; [ ] holds rarer units or linkages, { } end groups; capitals alone tell only the bases. k = constrained ethyl (cEt); [5mC] = 5-methylcytosine; d = 2'-deoxy (DNA)
Tested on: Yap1 mRNA
Test: Antisense inhibition of human Yap1 in A-431 cells by cEt gapmers, single dose (Example 3, RTS36584)
Assay type: cell-based
Outline: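 Human epidermoid A-431 cells take up gapmer (2,000 nM, free uptake, ~48 h); Yap1 transcript is then assayed by qRT-PCR with RiboGreen normalization and reported relative to untreated cells. Gapmers carry cEt-modified wings, phosphorothioate linkages and 5-methylcytosine throughout.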

[1] = Table 12, A-431 cells, 5,000 cells per well, free uptake, 2,000 nM modified oligonucleotide, approx. 48 hours, RTS36584, normalized to RIBOGREEN, Yap1 mRNA relative to untreated control cells
[2] = Table 10, A-431 cells, 5,000 cells per well, free uptake, 2,000 nM oligonucleotide, approx. 48 hours, primer probe set RTS36584, Yap1 mRNA normalized to RIBOGREEN, percent of untreated control
[3] = Table 11, A-431 cells, 5,000 cells per well, free uptake, 2,000 nM oligonucleotide, approx. 48 hours, primer probe set RTS36584, Yap1 mRNA normalized to RIBOGREEN, percent of untreated control
[4] = Table 27, Yap1 mRNA by 3-10-3 cEt gapmers targeting SEQ ID NO.: 1, and 2, percent of untreated control
[5] = Table 29, Yap1 mRNA as percent of untreated control, 3-10-3 cEt gapmers targeting SEQ ID NO.: 1, and 2
[6] = Table 9, A-431 cells, 5,000 cells per well, free uptake, 2,000 nM, approximately 48 hours, RTS36584, normalized to RIBOGREEN, Yap1 mRNA relative to untreated control cells
[7] = Table 35, Yap1 mRNA as percent of untreated control, 3-10-3 cEt gapmers targeting SEQ ID NO: 1 and 2, single dose
[8] = Table 13, A-431 cells, 5,000 cells per well, free uptake, 2,000 nM modified oligonucleotide, approx. 48 hours, RTS36584, normalized to RIBOGREEN, Yap1 mRNA relative to untreated control cells
[9] = Table 8, A-431 cells, 5,000 cells per well, free uptake, 2,000 nM, approximately 48 hours, RTS36584, normalized to RIBOGREEN, Yap1 mRNA relative to untreated control cells

Substance: 958729 (antisense kG*kT*k[5mC]*dA*dG*dT*dT*dA*dT*d[5mC]*d[5mC]*dT*dA*kT*k[5mC]*kT) [Compound 958729]
- YAP1 (% UTC) [1]: 4 % UTC

Substance: 958492 (kT*kG*kT*d[5mC]*dA*dG*dA*d[5mC]*d[5mC]*dA*dG*dT*dA*kA*kA*kT; antisense) [Compound 958492]
- YAP1 (% UTC) [2]: 12 % UTC

Substance: 958673 (kA*kG*kA*dA*d[5mC]*dT*dT*dA*dG*dT*dT*d[5mC]*d[5mC]*k[5mC]*kT*kT; antisense) [Compound 958673]
- YAP1 (% UTC) [3]: 30 % UTC

Substance: 1075277 (antisense kT*kT*kA*dT*dA*dA*dG*dA*dA*d[5mC]*dT*dG*dT*kG*kG*k[5mC]) [compound 1075277]
- YAP1 (% UTC) [4]: 13 % UTC

Substance: 1075980 (k[5mC]*kA*kA*dT*dA*dT*d[5mC]*d[5mC]*dT*dA*d[5mC]*dA*d[5mC]*k[5mC]*kA*kT; antisense) [compound 1075980]
- YAP1 (% UTC) (Table 26, Yap1 mRNA by 3-10-3 cEt gapmers targeting SEQ ID NO.: 1, and 2, percent of untreated control): 43 % UTC

Substance: 1075791 (k[5mC]*kT*kT*dT*dA*dT*d[5mC]*dA*dG*d[5mC]*d[5mC]*dA*dT*k[5mC]*kA*k[5mC]; antisense) [compound 1075791]
- YAP1 (% UTC) [5]: 10 % UTC

Substance: 958446 (antisense k[5mC]*k[5mC]*kT*dG*dA*d[5mC]*d[5mC]*d[5mC]*dA*dG*dG*d[5mC]*dG*kA*kG*k[5mC]) [Compound 958446]
- YAP1 (% UTC) [6]: 70 % UTC

Substance: 958562 (k[5mC]*kA*kT*dT*dG*dA*dA*dA*dG*dA*d[5mC]*d[5mC]*d[5mC]*kT*kT*kA; antisense) [Compound 958562]
- YAP1 (% UTC) [2]: 6 % UTC

Substance: 1075477 (k[5mC]*kT*kT*dT*dA*dT*d[5mC]*dT*d[5mC]*dA*d[5mC]*dT*dA*kG*k[5mC]*kT; antisense) [compound 1075477]
- YAP1 (% UTC) [7]: 86 % UTC

Substance: 958538 (kA*kT*k[5mC]*d[5mC]*dA*dG*dG*dG*dT*d[5mC]*dA*dA*dT*kT*kT*kT; antisense) [Compound 958538]
- YAP1 (% UTC) [3]: 10 % UTC

Substance: 958767 (antisense kA*k[5mC]*kG*dA*dA*dT*dA*dA*dG*dG*d[5mC]*dA*dT*kT*kA*kG) [Compound 958767]
- YAP1 (% UTC) [2]: 6 % UTC

Substance: 1074958 (antisense kT*kA*kA*d[5mC]*d[5mC]*d[5mC]*dG*dG*dG*dT*dT*dT*dT*kT*kG*kT) [compound 1074958]
- YAP1 (% UTC) (Table 28, Yap1 mRNA as percent of untreated control, 3-10-3 cEt gapmers targeting SEQ ID NO.: 1, and 2): 107 % UTC

Substance: 958437 (antisense kA*kG*kG*d[5mC]*dA*d[5mC]*dT*d[5mC]*dG*dG*dA*d[5mC]*d[5mC]*kT*kG*k[5mC]) [Compound 958437]
- YAP1 (% UTC) [2]: 84 % UTC

Substance: 958650 (kT*k[5mC]*kA*dA*dT*dT*dG*dA*dG*dT*d[5mC]*dT*dG*k[5mC]*kT*kA; antisense) [Compound 958650]
- YAP1 (% UTC) [8]: 3 % UTC

Substance: 958665 (k[5mC]*kT*kG*d[5mC]*dA*dT*dA*d[5mC]*d[5mC]*d[5mC]*dT*d[5mC]*d[5mC]*kA*kG*k[5mC]; antisense) [Compound 958665]
- YAP1 (% UTC) [8]: 84 % UTC

Substance: 1076053 (kT*kA*k[5mC]*d[5mC]*dA*dA*d[5mC]*dA*dA*dG*dG*d[5mC]*dA*kT*k[5mC]*kA; antisense) [compound 1076053]
- YAP1 (% UTC) [7]: 55 % UTC

Substance: 958422 (antisense kT*kT*kT*d[5mC]*dT*dT*dA*dA*d[5mC]*d[5mC]*dA*dG*d[5mC]*kG*kG*kA) [Compound 958422]
- YAP1 (% UTC) [9]: 15 % UTC

Substance: 958633 (antisense kT*kG*kT*d[5mC]*dA*dT*d[5mC]*dA*dG*dG*dT*dT*dA*kA*kG*kT) [Compound 958633]
- YAP1 (% UTC) [3]: 76 % UTC

Substance: 1075471 (antisense kA*kG*k[5mC]*d[5mC]*dA*dA*dT*dA*dA*dG*dT*dT*dA*kT*k[5mC]*kA) [compound 1075471]
- YAP1 (% UTC) [5]: 55 % UTC

Substance: 958806 (kT*kG*k[5mC]*d[5mC]*dT*dA*dG*dG*dG*dT*dT*d[5mC]*dT*kG*kT*kG; antisense) [Compound 958806]
- YAP1 (% UTC) [6]: 30 % UTC

Substance: 1075341 (antisense kG*k[5mC]*kT*dG*dA*dA*d[5mC]*dA*dA*dT*d[5mC]*dT*d[5mC]*k[5mC]*k[5mC]*kG) [compound 1075341]
- YAP1 (% UTC) [4]: 31 % UTC

Substance: 958653 (kT*kT*kA*d[5mC]*dA*d[5mC]*dA*d[5mC]*dA*dG*dG*d[5mC]*dT*kA*kT*kG; antisense) [Compound 958653]
- YAP1 (% UTC) [3]: 17 % UTC

Substance: 958514 (kT*kA*k[5mC]*dT*dA*dG*dT*d[5mC]*dA*dT*dG*dT*dA*kT*kT*k[5mC]; antisense) [Compound 958514]
- YAP1 (% UTC) [1]: 20 % UTC

Substance: 958460 (antisense kT*k[5mC]*kG*d[5mC]*dA*dT*d[5mC]*dT*dG*dT*dT*dG*d[5mC]*kT*kG*k[5mC]) [Compound 958460]
- YAP1 (% UTC) [8]: 52 % UTC

Substance: 1074133 (kG*k[5mC]*kG*dG*d[5mC]*d[5mC]*d[5mC]*d[5mC]*dG*d[5mC]*dA*dT*d[5mC]*k[5mC]*k[5mC]*k[5mC]; antisense) [compound 1074133]
- YAP1 (% UTC) [7]: 101 % UTC

Substance: 958747 (antisense kG*kT*kA*dA*dA*dG*dA*dG*dG*dG*dT*dG*dA*k[5mC]*kA*kT) [Compound 958747]
- YAP1 (% UTC) [2]: 106 % UTC

Substance: 958775 (antisense kG*kT*k[5mC]*dT*dA*dT*dA*d[5mC]*dG*dG*dG*dA*dG*kA*kT*kT) [Compound 958775]
- YAP1 (% UTC) [8]: 29 % UTC

Substance: 958626 (antisense kT*kG*kG*dG*d[5mC]*dA*dA*dA*dG*dT*dT*d[5mC]*d[5mC]*kT*kA*kT) [Compound 958626]
- YAP1 (% UTC) [6]: 158 % UTC

Substance: 1076109 (k[5mC]*kT*kT*dA*dA*dA*dT*dG*dA*d[5mC]*d[5mC]*dA*dA*kT*kT*k[5mC]; antisense) [compound 1076109]
- YAP1 (% UTC) [4]: 23 % UTC

Substance: 958713 (antisense kT*kG*k[5mC]*dT*dA*dG*dA*dG*dG*d[5mC]*dT*dG*dT*kT*k[5mC]*k[5mC]) [Compound 958713]
- YAP1 (% UTC) [3]: 55 % UTC

Substance: 958602 (kT*kG*k[5mC]*d[5mC]*dA*dT*dG*dT*dT*d[5mC]*d[5mC]*dA*dT*kA*kT*kA; antisense) [Compound 958602]
- YAP1 (% UTC) [2]: 16 % UTC

Substance: 1074997 (antisense kG*k[5mC]*k[5mC]*dG*d[5mC]*dG*dA*dG*dG*dA*dA*dA*dA*kT*kA*kA) [compound 1074997]
- YAP1 (% UTC) [7]: 119 % UTC

Substance: 958459 (antisense k[5mC]*kT*kG*dA*dA*dG*d[5mC]*d[5mC]*dG*dA*dG*dT*dT*k[5mC]*kA*kT) [Compound 958459]
- YAP1 (% UTC) [1]: 28 % UTC

Substance: 958762 (antisense kG*kA*kT*dT*dA*dG*dA*dG*dG*dA*d[5mC]*dT*d[5mC]*kA*kT*kT) [Compound 958762]
- YAP1 (% UTC) [2]: 16 % UTC

Substance: 958482 (antisense kT*k[5mC]*kT*dG*dT*dA*dT*dT*dA*dG*d[5mC]*d[5mC]*dT*kG*kA*kA) [Compound 958482]
- YAP1 (% UTC) [2]: 10 % UTC

Substance: 958660 (k[5mC]*k[5mC]*k[5mC]*dA*d[5mC]*dT*dG*dG*dG*dT*dT*dT*dG*kT*k[5mC]*k[5mC]; antisense) [Compound 958660]
- YAP1 (% UTC) [8]: 106 % UTC

Substance: 958389 (antisense k[5mC]*kG*kG*dA*dG*dG*d[5mC]*dG*d[5mC]*dG*d[5mC]*dG*d[5mC]*kA*kT*kT) [Compound 958389]
- YAP1 (% UTC) [9]: 126 % UTC

Substance: 1075989 (kG*k[5mC]*kT*dA*dA*dA*dA*dT*dT*dA*dA*dG*d[5mC]*kT*kT*k[5mC]; antisense) [compound 1075989]
- YAP1 (% UTC) [7]: 78 % UTC

Substance: 1075573 (antisense kA*kA*kG*dG*dA*dA*d[5mC]*d[5mC]*dT*dT*d[5mC]*dT*dG*kT*kG*kT) [compound 1075573]
- YAP1 (% UTC) [7]: 72 % UTC
